The values that follow come from paper PMC6163091 (Chemical biology & drug design, 2018).

Each structure is given as a SMILES string. Where two headings read alike, the source gives them in different places.

The term IC50 denotes the concentration that inhibits the measured activity by half. In general, inhibition refers to the percentage by which the read-out fell short of the control. Usually % inhibition stands for the relative decrease from the control value, in per cent. Low values mean a weak effect, high ones a strong effect.

Assay [1] deals with guanosine/adenosine/cytidine nucleoside hydrolase (GACNH) (Trichomonas vaginalis, UniProt A2DN71). Put plainly: 1H NMR-based activity assay of GACNH. Format: biochemical. To be noted: for inhibition at 250 µM: read-out: % inhibition at 250 μM against GACNH.
In assay [2] the target is T1, adenosine/guanosine nucleoside hydrolase (AGNH) (Trichomonas vaginalis, UniProt A2EYV3).
T1 sequence (A2EYV3 1-304): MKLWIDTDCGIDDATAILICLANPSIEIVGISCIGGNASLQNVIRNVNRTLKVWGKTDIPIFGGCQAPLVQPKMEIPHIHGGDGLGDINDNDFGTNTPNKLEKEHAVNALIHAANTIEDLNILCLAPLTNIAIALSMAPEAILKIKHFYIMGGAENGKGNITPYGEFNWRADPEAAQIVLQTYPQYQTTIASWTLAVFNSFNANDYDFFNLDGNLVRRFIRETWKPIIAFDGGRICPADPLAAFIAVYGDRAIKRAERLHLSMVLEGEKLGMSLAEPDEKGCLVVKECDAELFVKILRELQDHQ
The assay is described as follows: 1H NMR activity assay of AGNH. Particulars: for inhibition at 250 µM: read-out: % inhibition at 250 μM against AGNH. In kind it is biochemical.

Assay [3] has as its system uridine nucleoside hydrolase (UNH). The assay is described as follows: 19F NMR activity assay of UNH. In kind it is biochemical, Trichomonas vaginalis. To be noted: 250 μM compound; NM = not measurable (percent inhibition < 10%).
The test system is the same in assay [4]. To be noted: NMR screen of NIH Clinical Collection; cited from earlier work.
Where [5] appears, read: IC50 (μM) with Triton, GACNH, in the presence of 0.01% Triton X-100.
[6] abbreviates: IC50 against GACNH, ribavirin analogs, Table 2.
[7] abbreviates: carboxamidine in place of carboxamide.

For `O=C1c2c(O)cc(O)cc2O[C@H](c2ccc(O)c(O)c2)[C@H]1O` (racemic) [(±)-Taxifolin], the concentration for half-maximal inhibition (IC50) in assay [1] (read-out: IC50 (μM) with Triton, GACNH, in the presence of 0.01% Triton X-100) stood at 41.6 ± 20.4 µM.

`NC(=O)c1ncn([C@@H]2O[C@H](CO)[C@@H](O)[C@H]2O)c1N` [Acadesine]: the inhibition at 250 µM in assay [1] was 70%; in assay [2], below 10%. Also, in assay [3], the “% inhibition at 250 μM against UNH” value worked out at 51%.

Regarding `CCc1oc2ccccc2c1C(=O)c1cc(Br)c(O)c(Br)c1` [Benzbromarone], in assay [1] (setting [5]), the IC50 is 134 ± 32.7 µM.

For the compound `OC[C@H]1O[C@@H](n2cnc3c(NC4CCCC4)nc(Cl)nc32)[C@H](O)[C@@H]1O` [CCPA, 2-chloro-N(6)-cyclopentyladenosine], in assay [1] (setting [5]), the IC50 was 14 ± 5.8 µM.

As to `O=c1c(O[C@@H]2O[C@H](CO)[C@H](O)[C@H](O)[C@H]2O)c(-c2ccc(O)c(O)c2)oc2cc(O)cc(O)c12` [Hyperoside], the IC50 in assay [1] (setting [5]) turned out to be 22.6 ± 7.6 µM.

In the case of `COc1ccc(-c2oc3c(CC=C(C)C)c(O[C@@H]4O[C@H](CO)[C@@H](O)[C@H](O)[C@H]4O)cc(O)c3c(=O)c2O[C@@H]2O[C@@H](C)[C@H](O)[C@@H](O)[C@H]2O)cc1` [Icariin], the IC50 in assay [1] (setting [5]) was 5 ± 1.7 µM.

Regarding `O=c1c(O[C@@H]2O[C@H](CO)[C@@H](O)[C@H](O)[C@H]2O)c(-c2ccc(O)c(O)c2)oc2cc(O)cc(O)c12` [Isoquercitrin], the IC50 in assay [1] (setting [5]) was 2.2 ± 0.6 µM.

On to `NC(=O)c1ncn([C@@H]2O[C@H](CO)[C@@H](O)[C@H]2O)c1O` [Mizoribine], for which the inhibition at 250 µM in assay [1] and in assay [2] was below 10% each time. Further, the “% inhibition at 250 μM against UNH” value in assay [3] is recorded as “NM (Not measurable (percent inhibition < 10%))”.

`NC(=O)c1ncn([C@@H]2O[C@H](CO)[C@@H](O)[C@H]2O)n1` [Ribavirin]: the figures for the IC50 in assay [1] (setting [5]) and in assay [1] (setting [6]) were 9 ± 3.3 µM and 8.6 ± 4.4 µM, respectively. Besides, in assay [1] (screen of NIH Clinical Collection, 50 μM compound, 100 μM adenosine, 40 min), the “GACNH inhibition in screen” value is on record as “significant inhibition”. In assay [2], the inhibition at 250 µM worked out at 83%. In addition, the “% inhibition at 250 μM against UNH” value in assay [3] is given as 58%.

Take `N=C(N)c1ncn([C@@H]2O[C@H](CO)[C@@H](O)[C@H]2O)n1` [Viramidine]: the half-maximal inhibitory concentration (IC50) in assay [1] (setting [6]) was found to be 1.1 ± 0.6 µM; in assay [2] it was 120 ± 30 nM. For the same compound, the “enhancement of potency against GACNH relative to ribavirin” value in assay [1] (setting [7]) is recorded as “about 10 fold”. In assay [2] (setting [7]), the “enhancement of potency against AGNH relative to ribavirin” value is “more than 100 fold”. Moreover, the “selectivity toward AGNH over GACNH” value in assay [2] (from IC50 values) is recorded as 10 fold. For the same compound, the “% inhibition at 250 μM against UNH” value in assay [3] is recorded as 55%.

Consider `COc1ccc2[nH]c([S+]([O-])Cc3ncc(C)c(OC)c3C)nc2c1` (centres unmarked) [omeprazole], for which the “inhibition of UNH (earlier screen)” value in assay [4] is listed as “potent inhibitors”.

`COc1ccnc(C[S+]([O-])c2nc3ccc(OC(F)F)cc3[nH]2)c1OC` (centres unmarked) [pantoprazole]: the “inhibition of UNH (earlier screen)” value in assay [4] was “potent inhibitors”.

Turning to `COCCCOc1ccnc(C[S+]([O-])c2nc3ccccc3[nH]2)c1C` (centres unmarked) [rabeprazole], in assay [4], the “inhibition of UNH (earlier screen)” value is “potent inhibitors”.
